Experiments:
[1] = Inhibition of human rhinovirus 3C protease incubated for 1 hr by solid phase fluorescent assay; set-up: species or system Human rhinovirus sp.
[2] = Inhibition of human rhinovirus 3C protease; set-up: species or system Human rhinovirus sp.

IC50 [1] [µM] | IC50 [2] [µM] | SMILES
20.3 | – | C[C@H]1CC2=C(C(=O)c3ccc(O)cc3C2=O)[C@H](O)O1 (racemic)
30.9 | – | C[C@H]1CC2=C(CO1)C(=O)c1ccc(O)cc1C2=O (racemic)
35.7 | – | CC(C)Oc1ccc2c(c1)C(=O)C1=C(CO[C@@H](C)C1)C2=O (racemic)
51.8 | 47 | C[C@H]1CC2=C(C(=O)c3c(O)cc(O)cc3C2=O)[C@H](O)O1

Source: ChEMBL document CHEMBL3351622, “Synthesis and evaluation of 9-deoxy analogues of (-)-thysanone, an inhibitor of HRV 3C protease” (Eur J Med Chem, 2014)
